In US20250262188A1, “Methods of Increasing the Plasma Drug Exposure of Anticancer Agents” (Scandion Oncology A/S, priority 2021, published 2025):

Experiments:
[1] = SN-38 PK profile and tolerability in metastatic colorectal cancer patients treated with SCO-101 and FOLFIRI (Example 2); type: in vivo, human
Method: Patients with metastatic colorectal cancer were included in a study and treated with a combination of SCO-101 and FOLFIRI (combination of irinotecan, 5-FU and leucovorin) in 14 day treatment cycles. Patients received varying doses of Irinotecan between 50% and 80% of the recommended dose of Irinotecan (180 mg/m^2) according to their individual tolerability, which is standard practise. On days 1, 2, 3, 4, 5 and 6 in each treatment cycle, patients received one fixed daily dose of 150 mg SCO-101 taken in the morning at least 30 minutes before ingestion of food. On day 5 to 7, patients received FOLFIRI as specified for Colorectal cancer combination regimen 2.
Blood plasma samples were analysed for concentrations of SCO-101, irinotecan and SN-38 using Liquid Chromatography with Tandem Mass Spectrometric Detection (LC-MS/MS) bioanalytical method calibrated and validated in the rant 300 to 90.000 ng/ml. The method and system, including validation were according to industry standard. Data were analysed using commercially available software such as Win-Non-Lin (available from Certara inc.)
A trial was setup to address the safety, tolerability, and efficacy of SCO-101 given orally for 6 days followed by FOLFIRI at varying doses from day 5 to 7, in a biweekly schedule, in patients with metastatic colorectal cancer who have formerly been treated with FOLFIRI and afterwards progressed. The first part of the study was a dose-finding study, where the impact of SCO-101 on the pharmacokinetics (PK) of SN-38 was studied.
12 patients from the dose-finding part of the study received 150 mg SCO-101 for 6 days and […] of the recommended dose of FOLFIRI. 6 of the patients had RAS wildtype tumors and these patients were subjected to further analysis.
Blood for pharmacokinetic analysis was sampled from the patients were taken at 1, 2, 4, 8, 24, 48, and 96 hours after treatment with FOLFIRI and SCO-101.

[2] = test system: SN38-resistant human colon cancer cell lines (HT29 and LoVo); test: Cell viability (MTT/PrestoBlue) and clonogenic assays (Example 4); type: cell-based; conditions: SN-38-resistant cells exposed to SCO-101 and SN-38
From the text: Pairs of parental (sensitive) and SN38-resistant human colon cancer cell lines (HT29 and LoVo) were used. ABCG2 overexpression and effects of SCO-101 on ABCG2 was investigated by western blot, qPCR, dye-flux assays, bi-directional flux assays, 3H-SN38 accumulation assays and vesicular uptake assays. The effect of SCO-101 on SN38 re-sensitization was investigated by cell viability assays (MTT/PrestoBlue) and clonogenic assays.

BCRP = biological target: T1, BCRP (Homo sapiens, UniProt Q9UNQ0); test: 3H-SN-38 uptake in HT29 parental cell monolayers (Example 6); type: cell-based
T1 construct: endogenous in cells; host or cells: HT29 parental and HT29 SN38-resistant colorectal cancer cells
T1 sequence (Q9UNQ0 1-655): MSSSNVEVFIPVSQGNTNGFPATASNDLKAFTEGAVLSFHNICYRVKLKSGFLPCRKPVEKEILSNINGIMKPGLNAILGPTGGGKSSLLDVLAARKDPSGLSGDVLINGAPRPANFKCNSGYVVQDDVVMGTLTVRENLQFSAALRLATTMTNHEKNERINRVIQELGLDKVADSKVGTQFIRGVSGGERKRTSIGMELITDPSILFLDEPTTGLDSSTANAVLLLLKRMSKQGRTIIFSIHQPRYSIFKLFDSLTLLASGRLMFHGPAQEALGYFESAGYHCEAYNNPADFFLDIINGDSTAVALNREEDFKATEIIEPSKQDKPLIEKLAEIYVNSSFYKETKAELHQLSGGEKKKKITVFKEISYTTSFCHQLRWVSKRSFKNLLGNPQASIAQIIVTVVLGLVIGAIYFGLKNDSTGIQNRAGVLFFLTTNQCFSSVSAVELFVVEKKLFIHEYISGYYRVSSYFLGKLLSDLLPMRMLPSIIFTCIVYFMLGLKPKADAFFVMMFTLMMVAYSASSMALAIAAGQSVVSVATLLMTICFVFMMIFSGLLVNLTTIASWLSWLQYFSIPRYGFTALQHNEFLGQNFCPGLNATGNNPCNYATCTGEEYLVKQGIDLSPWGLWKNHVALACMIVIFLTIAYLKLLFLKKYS
Method: All treatments were investigated in three technical replicates (N=3). On the day of experimentation, the culture media was exchanged with 100 μL transport buffer (HBSS, 0.05% BSA, 10 mM HEPES, pH 7.4) and cells were incubated for 15 minutes at 37° C.
Subsequently, the blank transport buffer was exchanged with 50 μL transport buffer containing the different compounds (in 2x of the final concentration) to be tested and incubated for 15 minutes at 37° C. The uptake experiment was started by adding 50 μL of ^3H-SN38 at a concentration of 2 μCi/mL to all wells (the resulting concentration of ^3H-SN38 during the experiment was 1 μCi/mL). The uptake experiment was stopped after 15 minutes of incubation at 37° C. by removing the transport buffer from all wells.
The cell monolayers were subsequently washed twice by adding/removing ice-cold transport buffer twice and finally the cell monolayers were lysed by incubation in 100 μl of 0.1% TritonX-100 for 15 minutes at ambient temperature. Cell lysates were transferred to scintillation vials containing 2 mL of scintillation fluid (Ultima Gold, PerkinElmer). Each well was washed with 2×100 μL purified water (milliQ), which was also transferred to respective scintillation vials.

For `O=C(Nc1cc(C(F)(F)F)cc(C(F)(F)F)c1)Nc1ccc(Br)cc1-c1nnn[nH]1` [SCO-101], the “Tolerability of the combined treatment” value ([1]; SCO-101 in combination with FOLFIRI, metastatic colorectal cancer patients) was “well tolerated”, the “Toxicity profile (adverse events)” value ([1]; patients treated with SCO-101 and 90 mg irinotecan/m2 (50% FOLFIRI)) was “only grade 1 and 2 adverse events” and the “Effect on cell viability and colony formation of the combination with SN-38 compared to either drug alone” value [2] was “synergistic inhibitory effect”. For the same molecule, the “Uptake of SN-38 in the presence vs absence of SCO-101, all seeded cell densities” value (BCRP; 25 μM SCO-101, HT29 parental) was “increased uptake”, the “Uptake of SN-38 relative to blank HBSS transport buffer control” value (BCRP; 25 μM test compound, HT29 parental, ANOVA α=0.05) was “significantly increased” and the EC50 (BCRP; HT29 parental cell monolayers, read-out: Estimated EC50-value for increase in uptake of SN-38) was 9.1 µM. The “Uptake of SN-38 with increasing concentrations of SCO-101” value (BCRP; SCO-101 100 to 0.5 μM, HT29 parental) was “concentration-dependent increase”.
